The text below walks through data of patent publication US8003324B2, “Modulation of sodium channels by nicotinamide adenine dinucleotide” (U.S. Department of Veterans Affairs, priority 2007, dated 2011).

One series deals with HEK 293 cell (SCN5A). The format is cell-based. To be noted: human, 24 h. How it is done:
Human embryonic kidney (HEK) cell line was used for all experiments. A HEK cell line stably expressing a SCN5A-IRES-GFP construct as described in our previous study (Arnold et al., Hearth Rhythm 4:46-53 (2007)) was maintained by antibiotic selection using 0.2 mg/mL Geneticin (G-8168, Sigma-Aldrich). Cells were cultured in Dulbecco's modified Eagle's medium (DMEM; ATCC, Manassas, Va.) with 10% fetal calf serum (ATCC) at 37° C. in 60 mm×15 mm cell culture dishes (Corning Incorporated, Corning, N.Y.) until 70-80% confluence. After reaching confluence, cells were exposed to NADH (Sigma, St. Louis, Mo.) or NAD^+ (Sigma) in culture medium for a total of 12-14 h in triplicate. Experiments were repeated three times. After dissociation with 0.125% trypsin-EDTA, 40 μL of 0.4% Trypan-blue (Sigma, St. Louis, Mo.) was added to each well, and a Trypan-blue exclusion viability assay was performed.
As previously described, we maintained a human embryonic kidney (HEK) cell line that stably expresses the human cardiac Na^+ channel (SCN5A) with antibiotic selection using 0.2 mg/mL geneticin (G-8168, Sigma-Aldrich, St. Louis, Mo.) (23). Expression of SCN5A was linked to green fluorescent protein (GFP) expression by an internal ribosomal entry site (SCN5A-IRES-GFP). Cells were cultured in Dulbecco's modified Eagle's medium (DMEM; ATCC, Manassas, Va.) with 10% fetal calf serum (ATCC) at 37° C. in 60 mm×15 mm cell culture dishes (Corning Incorporated, Corning, N.Y.) until 70-80% confluency. Then, cells were exposed to NADH or NAD^+ (both from Sigma-Aldrich) in culture medium for a total of 24 h. After dissociation with 0.125% trypsin-ethylenediaminetetraacetic acid (EDTA), 40 μL of 0.4% Trypan-blue (Sigma) was added to each well of a 6-well plate, and a Trypan-blue exclusion viability assay was performed. SCN5A cells were tolerant of a wide range of NADH or NAD^+ concentrations from 150 to 300 μM (data not shown). […] All NAD(H) containing solutions were made fresh daily.

For series [1], the target named is T1, human cardiac Na^+ channel (SCN5A) (Homo sapiens, UniProt Q14524).
T1 construct: expressed in transfected cells
The series can be described thus: Whole-cell patch clamp Na+ current in HEK cells stably expressing SCN5A. The settings on record: for effect on peak Na+ current (in words): versus SCN5A cells. The format is cell-based. How it is done:
HEK cells stably transfected with two different Na^+ channel constructs were used, SCN5A-IRES-GFP and SCN5A-GFP fusion constructs. Cloning and establishment of the cell lines has been delineated previously (11). The HEK 293 cell line stably expressing a SCN5A-IRES-GFP construct was maintained by antibiotic selection using Geneticin (G-8168, Sigma-Aldrich) at a concentration of 0.2 mg/mL was used for patch clamp study. GFP was used as a marker to identify cells expressing the cardiac Na^+ channel. The cells were cultured in 6 well plates with Dulbecco's Modified Eagle's medium (DMEM), 10% fetal bovine serum and 1% pen-strep. Cells were stored in a 5% CO2 incubator at 37° C. for 1-2 days. GPD1-L (the A280V mutant or wild-type) was transiently co-transfected into HEK 293 cells. GPD1-L vectors have been described in London et al.
The effects of external NADH or NAD^+ on sodium current were determined by incubating HEK 293 cells overnight (12-14 h) with NADH/NAD^+ (300 μM) added to the media. The effects of internal NADH or NAD^+ (100 μM) on sodium current were tested by adding the compounds to the pipette solution.
Cells expressing GFP were tested with the whole cell patch-clamp technique in voltage-clamp mode to measure Na^+ current levels. For patch-clamping, HEK cells were plated onto plastic coverslips 2-3 h before the recordings. Glass pipettes were pulled on a Sutter Model P-97 horizontal puller to a resistance of 1-2 MΩ. The glass pipettes were filled with a pipette solution containing (in mmol/L): CsCl 80, Cesium Aspartate 80, EGTA 11, MgCl2 1, CaCl2 1, HEPES 10, Na2ATP 5 and pH 7.4 with CsOH. The bath solution consisted of (in mmol/L): NaCl 130, CsCl 5, CaCl2 2, MgCl2 1.2, HEPES 10 and Glucose 5 (titrated to pH 7.4 with CsOH). Once a seal was established, a small amount of suction was applied to obtain the whole cell configuration. A stepped voltage protocol from −100 to +60 mV from a holding potential of −100 mV was applied to establish the presence of voltage-gated Na^+ channels. Currents obtained during steps to −10 mV were used for comparison in determining the relative reduction in sodium current. Cells were tested at 25° C. In all recordings, 80% of the series resistance was compensated, yielding a maximum voltage error of ˜1 mV. Data were sampled at 10 kHz and later filtered at 5 kHz for analysis. Currents were recorded and analyzed with an Axopatch 200B amplifier, Axon Digidata 1230A A/D converter and pClamp software (Molecular Devices Corporation, Sunnyvale, Calif.).
Using HEK 293 cells stably expressing the SCN5A-IRES-GFP construct, we measured the effect of treatments on the Na^+ current. Cells were cultured in 6-well plates in a […] incubator at 37° C. WT or MT GPD1-L was transiently transfected into HEK 293 cells as described previously in London et al. Other treatments included extracellular NADH or NAD^+ (300 μM) for […] or NADH or NAD^+ (100 μM) in the patch pipette solution. Apocynin (100 μM, Sigma) was added to cells 4-6 h prior to treatment with NADH and continuing for the entire extracellular NADH incubation. Na^+ current levels were measured from GFP-expressing cells using the whole-cell patch clamp technique in voltage-clamp mode at room temperature. HEK cells were dissociated by trypsin-EDTA, and replated onto plastic coverslips 2-3 h before the recordings. Glass pipettes were pulled on a Sutter Model P-97 horizontal puller to a resistance of 1-2 MΩ. The glass pipettes were filled with a pipette solution containing (in mM): CsCl 80, cesium aspartate 80, EGTA 11, MgCl2 1, CaCl2 1, HEPES 10, and Na2ATP 5 (adjusted to pH 7.4 with CsOH). The bath solution consisted of (in mM): NaCl 130, CsCl 5, CaCl2 2, MgCl2 1.2, HEPES 10 and Glucose 5 (adjusted to pH 7.4 with CsOH). Once a seal was established, a small amount of suction was applied to obtain the whole-cell configuration. […]
A general note: Patch clamp records ionic current or voltage across a cell membrane.

For series [2], the system named is human SCN5A fused at the C-terminus to GFP (SCN5A-GFP fusion). The series can be described thus: Na+ channel tracking (confocal microscopy of SCN5A-GFP fusion in HEK cells). The format is cell-based. The protocol: An SCN5A constructed fused at the C-Terminus to GFP (SCN5A-GFP fusion) was stably transfected in HEK cells and grown on glass bottom 14 mm microwell dishes (MatTek Corporation, Ashland, Mass., USA). A Nikon (Melville, N.Y.) Diaphot 200 inverted microscope with a fluorescent lamp was used to identify cells expressing GFP. Cells expressing GFP were transiently co-transfected with MT GPD1-L or incubated overnight with NADH. Fixation was performed by washing the coverslip three times with DPBS (Dulbecco's Phosphate Buffered Saline 1× of GIBCO) and exposing them to 4% paraformaldehyde in PBS at pH 7.4. […] GFP fluorescence was observed using a 507 nm narrow bandpass filter and a 60× oil 1.4 NA objective. Quantification was done using ImageJ software.
For these experiments, a construct of human SCN5A fused at the C-terminus to GFP (SCN5A-GFP fusion) was stably transfected in HEK cells and grown on the glass bottom of 14-mm microwell dishes (MatTek Corporation, Ashland, Mass., USA). […] For imaging Na^+ channels, GFP was excited at 488 nm with an argon ion 30 mW water-cooled laser, and GFP fluorescence was observed using a 507 nm narrow bandpass filter and a 60× oil 1.4 NA objective. Quantification was done using ImageJ software.

A further series has as its system SCN5A^+/− mouse heart. In words: Ventricular arrhythmogenesis in Langendorff-perfused SCN5A+/- mouse heart (MAP recording, PES). How it is done:
Hearts from mice genetically modified to ablate one allele of SCN5A were isolated and Langendorff-perfused (3 ml/min at 37° C.) with Krebs-Henseleit solution (in mM: 119 NaCl, 25 NaHCO3, 4 KCl, 1.2 KH2PO4, 1 MgCl2, 1.8 CaCl2, 10 glucose and 2 sodium pyruvate) and allowed to beat intrinsically for 10 min. Monophasic action potentials (MAPs) were recorded using a MAP electrode (Harvard Apparatus, UK) placed on left ventricular epicardial surface. MAP signals were amplified, band-pass filtered (0.5 Hz to 1 kHz: Neurolog NL900D), digitized (1401, Cambridge Electronic Design, Cambridge, UK) and acquired using Spike 2.5 (Cambridge Electronic Design) at a 5 KHz sampling rate. A custom made, paired-platinum electrode was placed on right ventricle and used to deliver 2 ms ([…], twice the threshold) stimuli (GRASS S48 stimulator) to pace the heart at different intervals. The standard pacing protocol consisted of 8 Hz stimuli (basic cycle length, BCL 125 ms) and was delivered for 20 min to measure MAPs. This was followed by programmed electrically stimulation (PES) consisting of trains of eight paced stimuli at 125 ms BCL (S1) followed by an extra stimulus (S2). […] PES was repeated three times before and three times after the drug application in each heart. NAD^+ was perfused for 20 min to assess its anti-arrhythmic effect. Selected recordings were imported to Microsoft Excel for further statistical analysis. Average APD90 (action potential duration) was calculated by averaging 240 MAPs recorded at three different locations on each heart (80 MAPs at each location). These studies were approved by the Institutional Review Board.

Where [3] appears, read: 100 μM intracellular (pipette solution), at 10 min.
The mark [4] stands for this setting: 300 μM extracellular, overnight incubation.

Where “and” joins values, the source holds several entries; their conditions need not be identical. Identical values can stand only once. Entries after “also recorded” stand apart in the source; their conditions may differ.

T1 sequence (Q14524 whole entry): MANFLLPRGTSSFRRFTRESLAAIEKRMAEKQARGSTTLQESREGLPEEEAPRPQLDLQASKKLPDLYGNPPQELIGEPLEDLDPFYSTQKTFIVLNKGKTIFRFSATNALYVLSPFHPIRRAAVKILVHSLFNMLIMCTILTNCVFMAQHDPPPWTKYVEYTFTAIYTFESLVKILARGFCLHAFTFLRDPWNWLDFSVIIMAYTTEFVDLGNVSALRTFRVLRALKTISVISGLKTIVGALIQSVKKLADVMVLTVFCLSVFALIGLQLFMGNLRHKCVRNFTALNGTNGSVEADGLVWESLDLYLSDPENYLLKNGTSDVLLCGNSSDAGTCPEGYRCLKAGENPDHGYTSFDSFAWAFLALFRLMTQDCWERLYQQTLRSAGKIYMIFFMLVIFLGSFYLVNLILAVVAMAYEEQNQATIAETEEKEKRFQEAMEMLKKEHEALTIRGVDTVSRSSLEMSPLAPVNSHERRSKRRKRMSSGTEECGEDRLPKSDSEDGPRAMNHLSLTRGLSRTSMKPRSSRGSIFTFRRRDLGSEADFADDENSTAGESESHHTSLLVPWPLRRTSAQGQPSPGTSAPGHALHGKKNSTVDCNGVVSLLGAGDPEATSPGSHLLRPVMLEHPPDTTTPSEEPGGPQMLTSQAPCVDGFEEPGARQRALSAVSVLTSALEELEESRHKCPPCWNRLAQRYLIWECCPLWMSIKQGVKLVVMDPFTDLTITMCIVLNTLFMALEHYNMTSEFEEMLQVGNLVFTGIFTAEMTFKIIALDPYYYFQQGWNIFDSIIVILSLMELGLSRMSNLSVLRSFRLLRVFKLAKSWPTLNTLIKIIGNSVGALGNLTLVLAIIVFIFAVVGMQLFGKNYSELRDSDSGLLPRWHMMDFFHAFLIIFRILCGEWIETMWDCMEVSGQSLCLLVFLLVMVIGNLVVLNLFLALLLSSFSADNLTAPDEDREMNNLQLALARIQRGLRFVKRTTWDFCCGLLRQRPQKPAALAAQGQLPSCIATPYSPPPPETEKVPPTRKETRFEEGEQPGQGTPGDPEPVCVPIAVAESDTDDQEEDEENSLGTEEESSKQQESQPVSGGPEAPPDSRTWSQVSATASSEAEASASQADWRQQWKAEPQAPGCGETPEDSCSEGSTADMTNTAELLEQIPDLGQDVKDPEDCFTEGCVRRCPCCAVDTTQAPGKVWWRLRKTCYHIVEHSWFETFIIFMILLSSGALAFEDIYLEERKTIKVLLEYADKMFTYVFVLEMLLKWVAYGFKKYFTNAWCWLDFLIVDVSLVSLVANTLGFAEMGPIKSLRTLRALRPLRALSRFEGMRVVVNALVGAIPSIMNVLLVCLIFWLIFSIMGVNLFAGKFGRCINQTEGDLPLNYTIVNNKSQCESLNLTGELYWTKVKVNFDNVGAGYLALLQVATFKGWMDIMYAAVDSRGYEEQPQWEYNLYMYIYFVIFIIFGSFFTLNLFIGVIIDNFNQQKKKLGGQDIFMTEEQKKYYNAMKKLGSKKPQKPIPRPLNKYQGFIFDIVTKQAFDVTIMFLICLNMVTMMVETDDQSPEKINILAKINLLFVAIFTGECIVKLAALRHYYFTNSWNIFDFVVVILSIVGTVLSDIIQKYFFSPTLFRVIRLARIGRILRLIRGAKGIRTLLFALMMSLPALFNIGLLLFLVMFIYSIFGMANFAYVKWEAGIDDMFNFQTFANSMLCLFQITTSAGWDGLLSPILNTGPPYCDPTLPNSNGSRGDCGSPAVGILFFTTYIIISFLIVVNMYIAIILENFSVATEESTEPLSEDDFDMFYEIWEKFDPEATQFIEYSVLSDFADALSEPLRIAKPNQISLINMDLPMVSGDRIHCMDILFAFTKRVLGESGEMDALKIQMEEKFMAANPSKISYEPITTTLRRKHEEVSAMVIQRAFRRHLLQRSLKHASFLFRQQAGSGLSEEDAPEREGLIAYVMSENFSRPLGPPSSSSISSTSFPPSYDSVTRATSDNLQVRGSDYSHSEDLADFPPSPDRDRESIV

Consider `NC(=O)C1=CN([C@@H]2O[C@H](COP(=O)(O)OP(=O)(O)OC[C@H]3O[C@@H](n4cnc5c(N)ncnc54)[C@H](O)[C@@H]3O)[C@@H](O)[C@H]2O)C=CC1` [NADH, nicotinamide adenine dinucleotide], for which, in the series on HEK 293 cell (SCN5A), the “tolerated concentration range (cell viability)” value fell in the range of 150 to 300 µM and the “tolerated concentration range (dose-dependent cell viability)” value lay within 150 to 300 µmol/L. In addition, the “decrease in Na+ current (peak current)” value in series [1] (setting [3]) was 51% and 55.5%. Besides, the “decrease in whole cell peak conductance” value in series [1] (300 μM extracellular, overnight) was determined as 71.4%. Moreover, the “decrease in peak Na+ current” value in series [1] (setting [4]) was 65.7±6.6% and 74.9%. Moreover, in series [2] (overnight incubation with NADH, fluorescent microscopy), the “reduction in membrane-associated, GFP-tagged Na+ channels” value is reported as 6.1 fold.
`NC(=O)c1ccc[n+]([C@H]2O[C@@H](COP(=O)(O)OP(=O)(O)OC[C@@H]3O[C@H](n4cnc5c(N)ncnc54)[C@H](O)C3O)C(O)[C@H]2O)c1` (stereo partly drawn) [NAD^+, nicotinamide adenine dinucleotide]: the “tolerated concentration range (cell viability)” value in the series with HEK 293 cell (SCN5A) was 150 to 300 µM. Further, the “effect on Na+ current density (in words)” value in series [1] (100 μM in internal (pipette) solution, versus SCN5A) is listed as “significantly higher”. For the same molecule, in series [1] (setting [3]), the “increase in Na+ current (peak current)” value is 77% and 66.6%. Also, the “effect on peak Na+ current (in words)” value is listed as “increase in peak current; also recorded: increased sodium current” in series [1] (setting [4]) and “largely restored peak current” in series [1] (300 μM extracellular, overnight incubation, listed as NAD+). In addition, the “increase in whole cell peak conductance” value in series [1] (300 μM extracellular, overnight, n=9) is 30.3%. Further, the “effect on the Na+ current reduction caused by MT GPD1-L (A280V)” value in series [1] (SCN5A cells co-transfected with MT GPD1-L, external NAD+ 300 μM) was “prevented the loss of peak current; also recorded: increased Na^+ current at all activation potential; also recorded: reverses the decrease in peak current; also recorded: largely prevented; also recorded: prevent the reduction in Na^+ current”. For the same molecule, in series [1] (WT SCN5A cells, versus SCN5A cell), the “shift of activation curve” value is on record as “shift more positive”. Moreover, the “shift of inactivation curve” value in series [1] (versus SCN5A cell) is given as “more positive”. In series [2] (300 μM overnight, versus control SCN5A-GFP cells), the “effect on Na+ channel protein (GFP fluorescence, in words)” value is recorded as “increased GFP fluorescence; also recorded: increases Na^+ channel protein”. In addition, the “hearts in which PES failed to induce VT” value in the series on SCN5A^+/− mouse heart (SCN5A+/- hearts after 20 min perfusion with 100 μM, VT in 6 out of 6 before) was 5 out of 6. For the same molecule, the “reversibility: hearts with PES-induced VTs after removal” value in the series on SCN5A^+/− mouse heart (SCN5A+/- hearts, NAD+ removed) is 4 out of 6 and reversible. Further, in the series on SCN5A^+/− mouse heart (perfusion for 20 min with 100 μM), the “MAP duration or morphology” value is “no significant change”. Also, the APD90 in the series on SCN5A^+/− mouse heart (six SCN5A+/- hearts, 20 min perfusion with 100 μM, BCL 125 ms) is 27.9 ± 1.9 ms.
For `COc1cc(C(C)=O)ccc1O` [apocynin, reference compound], the “effect on the NADH-induced reduction of Na+ current” value in series [1] (apocynin 100 μM added 4-6 h before and during extracellular NADH incubation) is on record as “abolished the effect of NADH on Na^+ current; also recorded: inhibited the effect of NADH on Na^+ currents”.
